Key:
[1] = target: Recombinant purified human BTK (Homo sapiens (Human), UniProt Q06187); experiment: BTK kinase inhibitory activity, ADP-Glo kinase assay kit (Promega V9071); format: biochemical; details: ATP 10 uM, 8 ng BTK per reaction, 1 hour at 30° C., chemiluminescence
Protocol: (§1) JAK3 and BTK kinase inhibitory activities were measured for the compounds prepared in the above Examples through in vitro analysis on the ADP Glow (Glo) platform.
(§2) Specifically, the inhibitory activities of JAK3 and BTK kinase were measured using a JAK3 kinase assay kit (Promega, V9441) and a BTK kinase assay kit (Promega, V9071) which were purchased from Promega. Recombinant purified human JAK3 and BTK were diluted with 1× kinase reaction buffer (JAK3: 40 mM Tris-Cl, pH 7.5, 20 mM MgCl2, 0.1 mg/mL BSA and 50 uM DTT/BTK: 40 mM Tris-Cl, pH 7.5, 20 mM MgCl2, 0.1 mg/mL BSA, 2 mM MnCl2 and 50 uM DTT) and added to a 96 well plate (JAK3: final concentration of 4 ng per reaction/BTK: final concentration of 8 ng per reaction). […] After incubation (30° C.) for 1 hour, equivalent volume (25 uL per reaction) of ADP Glo was added and incubated (30° C.) for 40 minutes at room temperature. Then, a kinase detection reagent (50 uL per reaction) was added and incubated (30° C.) for 30 minutes at room temperature. The kinase activity was measured by chemiluminescence according to the instructions of ADP Glo kinase assay kit, and the inhibitory activity of the compounds according to the present invention was calculated.

[2] = target: Recombinant purified human JAK3 (Homo sapiens (Human), UniProt P52333); experiment: JAK3 kinase inhibitory activity, ADP-Glo kinase assay kit (Promega V9441); format: biochemical; details: ATP 5 uM, 4 ng JAK3 per reaction, 1 hour at 30° C., chemiluminescence
Chain of Recombinant purified human JAK3 (P52333 whole entry): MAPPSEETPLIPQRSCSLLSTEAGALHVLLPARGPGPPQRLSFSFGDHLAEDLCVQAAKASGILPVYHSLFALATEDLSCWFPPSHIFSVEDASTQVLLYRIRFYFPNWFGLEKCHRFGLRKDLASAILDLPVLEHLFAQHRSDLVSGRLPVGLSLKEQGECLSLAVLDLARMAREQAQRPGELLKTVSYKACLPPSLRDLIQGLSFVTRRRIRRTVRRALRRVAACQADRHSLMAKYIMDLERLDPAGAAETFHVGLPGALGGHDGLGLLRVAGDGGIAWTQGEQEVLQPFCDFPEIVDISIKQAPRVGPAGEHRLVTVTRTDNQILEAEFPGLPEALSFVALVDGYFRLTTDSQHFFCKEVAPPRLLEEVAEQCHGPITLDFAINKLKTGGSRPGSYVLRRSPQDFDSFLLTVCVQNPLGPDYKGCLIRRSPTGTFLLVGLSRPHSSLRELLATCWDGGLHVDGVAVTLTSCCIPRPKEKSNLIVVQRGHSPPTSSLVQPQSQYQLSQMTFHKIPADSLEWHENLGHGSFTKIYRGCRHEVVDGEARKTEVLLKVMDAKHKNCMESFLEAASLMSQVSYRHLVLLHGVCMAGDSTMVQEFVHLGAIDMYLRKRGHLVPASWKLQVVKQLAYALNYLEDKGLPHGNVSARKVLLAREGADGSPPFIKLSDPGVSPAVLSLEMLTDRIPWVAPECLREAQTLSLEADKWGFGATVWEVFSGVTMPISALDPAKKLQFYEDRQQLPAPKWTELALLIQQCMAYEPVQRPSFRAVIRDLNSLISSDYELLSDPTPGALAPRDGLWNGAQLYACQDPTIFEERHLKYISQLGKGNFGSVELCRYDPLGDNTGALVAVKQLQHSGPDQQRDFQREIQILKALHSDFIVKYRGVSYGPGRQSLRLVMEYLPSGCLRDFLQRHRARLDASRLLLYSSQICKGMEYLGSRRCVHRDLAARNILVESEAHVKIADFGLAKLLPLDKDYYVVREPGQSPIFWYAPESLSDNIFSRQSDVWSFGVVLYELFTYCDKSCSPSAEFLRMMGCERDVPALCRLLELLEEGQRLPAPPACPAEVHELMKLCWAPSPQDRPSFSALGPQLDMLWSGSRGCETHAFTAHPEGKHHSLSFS
Protocol: as §1, §2

Chain of Recombinant purified human BTK (Q06187 whole entry): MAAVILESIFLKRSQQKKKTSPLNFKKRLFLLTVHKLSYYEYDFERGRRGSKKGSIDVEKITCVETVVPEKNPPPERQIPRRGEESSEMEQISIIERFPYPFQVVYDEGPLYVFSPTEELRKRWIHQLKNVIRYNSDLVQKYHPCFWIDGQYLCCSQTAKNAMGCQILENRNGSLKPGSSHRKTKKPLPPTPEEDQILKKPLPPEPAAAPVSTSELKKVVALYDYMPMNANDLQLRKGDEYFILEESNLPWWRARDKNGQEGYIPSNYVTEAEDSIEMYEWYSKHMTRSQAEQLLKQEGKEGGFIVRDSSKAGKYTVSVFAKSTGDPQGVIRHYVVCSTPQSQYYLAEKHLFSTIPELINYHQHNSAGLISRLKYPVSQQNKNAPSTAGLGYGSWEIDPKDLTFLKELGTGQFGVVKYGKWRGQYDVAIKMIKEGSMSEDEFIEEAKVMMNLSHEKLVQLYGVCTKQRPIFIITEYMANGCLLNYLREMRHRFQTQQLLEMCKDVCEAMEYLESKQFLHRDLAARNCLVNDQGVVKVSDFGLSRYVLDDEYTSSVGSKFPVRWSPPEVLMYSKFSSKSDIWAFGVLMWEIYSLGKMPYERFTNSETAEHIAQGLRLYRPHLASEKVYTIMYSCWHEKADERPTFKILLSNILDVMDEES

In the case of C=CC(=O)Nc1ccc(F)c(Oc2nc(Nc3cnn(C4CC4)c3)nn3cccc23)c1 [Example 1, N-(3-((2-((1-cyclopropyl-1H-pyrazol-4-yl)amino)pyrrolo[2,1-f][1,2,4]triazin-4-yl)oxy)-4-fluorophenyl)acrylamide], the IC50 [1] is reported as 13.6 nM and the IC50 [2] is reported as 1.1 nM.

For C=CC(=O)Nc1cccc(Oc2nc(Nc3ccc(N4CCN(C)CC4)cc3)nn3cccc23)c1 [Example 2, N-(3-((2-((4-(4-methylpiperazin-1-yl)phenyl)amino)pyrrolo[2,1-f][1,2,4]triazin-4-yl)oxy)phenyl)acrylamide], the IC50 [1] was 22.7 nM and the IC50 [2] was 2.8 nM.

Compound C=CC(=O)Nc1cccc(Oc2nc(Nc3cnn(C)c3)nn3cccc23)c1 [Example 3, N-(3-((2-((1-methyl-1H-pyrazol-4-yl)amino)pyrrolo[2,1-f][1,2,4]triazin-4-yl)oxy)phenyl)acrylamide] has an IC50 [1] of 12.7 nM and an IC50 [2] of 0.6 nM.

For C=CC(=O)Nc1cccc(Oc2nc(Nc3cnn(CC(F)F)c3)nn3cccc23)c1 [Example 4, N-(3-((2-((1-(2,2-difluoroethyl)-1H-pyrazol-4-yl)amino)pyrrolo[2,1-f][1,2,4]triazin-4-yl)oxy)phenyl)acrylamide], the IC50 [1] was 13.4 nM and the IC50 [2] was 0.7 nM.

C=CC(=O)Nc1cccc(Oc2nc(Nc3cc(C)ns3)nn3cccc23)c1 [Example 5, N-(3-((2-((3-methylisothiazol-5-yl)amino)pyrrolo[2,1-f][1,2,4]triazin-4-yl)oxy)phenyl)acrylamide] showed an IC50 [1] of 8.7 nM and an IC50 [2] of 0.6 nM.

C=CC(=O)Nc1cccc(Oc2nc(Nc3cnn(CC)c3)nn3cccc23)c1 [Example 6, N-(3-((2-((1-ethyl-1H-pyrazol-4-yl)amino)pyrrolo[2,1-f][1,2,4]triazin-4-yl)oxy)phenyl)acrylamide] was tested, and the IC50 [1] was 10 nM and the IC50 [2] was 0.5 nM.

Work on C=CC(=O)Nc1ccc(F)c(Oc2nc(Nc3cc(C)ns3)nn3cccc23)c1 [Example 7, N-(4-fluoro-3-((2-((3-methylisothiazol-5-yl)amino)pyrrolo[2,1-f][1,2,4]triazin-4-yl)oxy)phenyl)acrylamide] yielded an IC50 [1] of 10.7 nM and an IC50 [2] of 0.5 nM.

C=CC(=O)Nc1ccc(F)c(Oc2nc(Nc3cnn(CC)c3)nn3cccc23)c1 [Example 8, N-(3-((2-((1-ethyl-1H-pyrazol-4-yl)amino)pyrrolo[2,1-f][1,2,4]triazin-4-yl)oxy)-4-fluorophenyl)acrylamide] was tested, and the IC50 [1] was 7.7 nM and the IC50 [2] was 0.6 nM.

C=CC(=O)Nc1ccc(F)c(Oc2nc(Nc3ccn(C)c3)nn3cccc23)c1 [Example 9, N-(4-fluoro-3-((2-((1-methyl-1H-pyrrol-3-yl)amino)pyrrolo[2,1-f][1,2,4]triazin-4-yl)oxy)phenyl)acrylamide] gave an IC50 [1] of 243 nM and an IC50 [2] of 16.8 nM.

In the case of C=CC(=O)Nc1ccc(F)c(Oc2nc(Nc3cnn(CC(C)C)c3)nn3cccc23)c1 [Example 10, N-(4-fluoro-3-((2-((1-isobutyl-1H-pyrazol-4-yl)amino)pyrrolo[2,1-f][1,2,4]triazin-4-yl)oxy)phenyl)acrylamide], the IC50 [1] is reported as 113 nM and the IC50 [2] is reported as 9.6 nM.

C=CC(=O)Nc1cccc(Oc2nc(Nc3cnn(C4CC4)c3)nn3cccc23)c1 [Example 11, N-(3-((2-((1-cyclopropyl-1H-pyrazol-4-yl)amino)pyrrolo[2,1-f][1,2,4]triazin-4-yl)oxy)phenyl)acrylamide] showed an IC50 [1] of 107 nM and an IC50 [2] of 10.3 nM.

With C=CC(=O)Nc1ccc(F)c(Oc2nc(Nc3ccc(N(C)C)cc3)nn3cccc23)c1 [Example 12, N-(3-((2-((4-(dimethylamino)phenyl)amino)pyrrolo[2,1-f][1,2,4]triazin-4-yl)oxy)-4-fluorophenyl)acrylamide] the IC50 [1] was 7.5 nM and the IC50 [2] was 0.7 nM.

Compound C=CC(=O)Nc1ccc(F)c(Oc2nc(Nc3ccc(Oc4ccccc4)cc3)nn3cccc23)c1 [Example 13, N-(4-fluoro-3-((2-((4-phenoxyphenyl)amino)pyrrolo[2,1-f][1,2,4]triazin-4-yl)oxy)phenyl)acrylamide] has an IC50 [1] of 622 nM and an IC50 [2] of 41.7 nM.

C=CC(=O)Nc1ccc(F)c(Oc2nc(Nc3ccc4ncsc4c3)nn3cccc23)c1 [Example 14, N-(3-((2-((benzo[d]thiazol-6-yl)amino)pyrrolo[2,1-f][1,2,4]triazin-4-yl)oxy)-4-fluorophenyl)acrylamide] showed an IC50 [1] of 43.3 nM and an IC50 [2] of 9.8 nM.

C=CC(=O)Nc1ccc(F)c(Oc2nc(Nc3cccnc3)nn3cccc23)c1 [Example 15, N-(4-fluoro-3-((2-((pyridin-3-yl)amino)pyrrolo[2,1-f][1,2,4]triazin-4-yl)oxy)phenyl)acrylamide] was tested, and the IC50 [1] was 104 nM and the IC50 [2] was 15.5 nM.

C=CC(=O)Nc1cccc(Oc2nc(Nc3ccc(C(C)C)cc3)nn3cccc23)c1 [Example 16, N-(3-((2-((4-isopropylphenyl)amino)pyrrolo[2,1-f][1,2,4]triazin-4-yl)oxy)phenyl)acrylamide] was tested, and the IC50 [1] was 123 nM and the IC50 [2] was 20 nM.

In the case of C=CC(=O)Nc1cccc(Oc2nc(Nc3ccc(OC)cc3)nn3cccc23)c1 [Example 17, N-(3-((2-((4-methoxyphenyl)amino)pyrrolo[2,1-f][1,2,4]triazin-4-yl)oxy)phenyl)acrylamide], the IC50 [1] is reported as 68.6 nM and the IC50 [2] is reported as 5.9 nM.

With C=CC(=O)Nc1cccc(Oc2nc(Nc3ccc(C(=O)N4CCOCC4)cc3)nn3cccc23)c1 [Example 18, N-(3-((2-((4-(morpholine-4-carbonyl)phenyl)amino)pyrrolo[2,1-f][1,2,4]triazin-4-yl)oxy)phenyl)acrylamide] the IC50 [1] was 37.8 nM and the IC50 [2] was 2.2 nM.

In the case of C=CC(=O)Nc1cccc(Oc2nc(Nc3ccsc3)nn3cccc23)c1 [Example 19, N-(3-((2-((thiophen-3-yl)amino)pyrrolo[2,1-f][1,2,4]triazin-4-yl)oxy)phenyl)acrylamide], the IC50 [1] is reported as 62.9 nM and the IC50 [2] is reported as 5.3 nM.

With C=CC(=O)Nc1cccc(Oc2nc(Nc3ccn(C)n3)nn3cccc23)c1 [Example 20, N-(3-((2-((1-methyl-1H-pyrazol-3-yl)amino)pyrrolo[2,1-f][1,2,4]triazin-4-yl)oxy)phenyl)acrylamide] the IC50 [1] was 647 nM and the IC50 [2] was 57.7 nM.

C=CC(=O)Nc1cccc(Oc2nc(Nc3ccc(CN(C)C)cc3)nn3cccc23)c1 [Example 21, N-(3-((2-((4-((dimethylamino)methyl)phenyl)amino)pyrrolo[2,1-f][1,2,4]triazin-4-yl)oxy)phenyl)acrylamide] was tested, and the IC50 [1] was 104 nM and the IC50 [2] was 11.7 nM.

C=CC(=O)Nc1cccc(Oc2nc(Nc3ccc(N4CCOCC4)cc3)nn3cccc23)c1 [Example 22, N-(3-((2-((4-morpholinophenyl)amino)pyrrolo[2,1-f][1,2,4]triazin-4-yl)oxy)phenyl)acrylamide] gave an IC50 [1] of 35.4 nM and an IC50 [2] of 5.3 nM.

For C=CC(=O)Nc1cccc(Oc2nc(Nc3ccc(N(C)C)cc3)nn3cccc23)c1 [Example 23, N-(3-((2-((4-(dimethylamino)phenyl)amino)pyrrolo[2,1-f][1,2,4]triazin-4-yl)oxy)phenyl)acrylamide], the IC50 [1] was 60.2 nM and the IC50 [2] was 10.4 nM.

C=CC(=O)Nc1cccc(Oc2nc(Nc3cc4n(n3)CCN(C)C4)nn3cccc23)c1 [Example 24, N-(3-((2-((5-methyl-4,5,6,7-tetrahydropyrazolo[1,5-a]pyrazin-2-yl)amino)pyrrolo[2,1-f][1,2,4]triazin-4-yl)oxy)phenyl)acrylamide] was tested, and the IC50 [1] was 166 nM and the IC50 [2] was 18.8 nM.

With C=CC(=O)Nc1ccc(F)c(Oc2nc(Nc3ccc(N4CCN(C)CC4)cc3)nn3cccc23)c1 [Example 25, N-(4-fluoro-3-((2-((4-(4-methylpiperazin-1-yl)phenyl)amino)pyrrolo[2,1-f][1,2,4]triazin-4-yl)oxy)phenyl)acrylamide] the IC50 [1] was 7.9 nM and the IC50 [2] was 1.4 nM.

C=CC(=O)Nc1ccc(F)c(Oc2nc(Nc3cnn(CC(F)F)c3)nn3cccc23)c1 [Example 26, N-(3-((2-((1-(2,2-difluoroethyl)-1H-pyrazol-4-yl)amino)pyrrolo[2,1-f][1,2,4]triazin-4-yl)oxy)-4-fluorophenyl)acrylamide] gave an IC50 [1] of 6.2 nM and an IC50 [2] of 0.9 nM.

Compound C=CC(=O)Nc1ccc(F)c(Oc2nc(Nc3cnn(C)c3)nn3cccc23)c1 [Example 27, N-(4-fluoro-3-((2-((1-methyl-1H-pyrazol-4-yl)amino)pyrrolo[2,1-f][1,2,4]triazin-4-yl)oxy)phenyl)acrylamide] has an IC50 [1] of 5 nM and an IC50 [2] of 0.7 nM.

C=CC(=O)Nc1ccc(F)c(Oc2nc(Nc3ccc(OC)cc3)nn3cccc23)c1 [Example 28, N-(4-fluoro-3-((2-((4-methoxyphenyl)amino)pyrrolo[2,1-f][1,2,4]triazin-4-yl)oxy)phenyl)acrylamide] was tested, and the IC50 [1] was 52 nM and the IC50 [2] was 9.2 nM.

C=CC(=O)Nc1ccc(F)c(Oc2nc(Nc3ccc(C(=O)N4CCOCC4)cc3)nn3cccc23)c1 [Example 29, N-(4-fluoro-3-((2-((4-(morpholine-4-carbonyl)phenyl)amino)pyrrolo[2,1-f][1,2,4]triazin-4-yl)oxy)phenyl)acrylamide] showed an IC50 [1] of 23.1 nM and an IC50 [2] of 2 nM.

In the case of C=CC(=O)Nc1ccc(F)c(Oc2nc(Nc3ccsc3)nn3cccc23)c1 [Example 30, N-(4-fluoro-3-((2-((thiophen-3-yl)amino)pyrrolo[2,1-f][1,2,4]triazin-4-yl)oxy)phenyl)acrylamide], the IC50 [1] is reported as 66.6 nM and the IC50 [2] is reported as 7.6 nM.

Reference: patent US11084823B2, “Substituted pyrrolo[2,1-f][1,2,4]triazines as kinase inhibitors” (Daewoong Pharmaceutical Co., Ltd., priority 2017, dated 2021)
